The source of these data is patent US20240197681A1, “METHODS AND COMPOSITIONS RELATING TO PS[…] SEROTONIN RECEPTOR MODULATORS” (Terran Biosciences Inc., priority 2021, published 2024).

Assay [1] relates to Healthy Volunteers. In words: Resting-state fMRI: global brain connectivity (GBC) and functional connectivity (FC). As to conditions: ketanserin 60 minutes before LSD; for LSD induced neural changes at 300 minutes in the presence of ketanserin: absence of psychotomimetic effects. In kind it is in vivo, humans. The source says: The used dataset was acquired in the course of a registered clinical trial (ClinicalTrials.gov Identifier: NCT02451072) entitled: The Role of 5-HT2A Receptor in the Perception of Self and Personal Meaning in Healthy Volunteers. Participants, study design, neuroimaging data acquisition, preprocessing and global brain connectivity calculation are detailed in Preller et al. (eLife. 2018 Oct. 25; 7:e35082. Changes in global and thalamic brain connectivity in LSD-induced altered states of consciousness are attributable to the 5-HT2A receptor, PMID: 30355445). The relevant methodological sections pertinent to the current analysis are summarized below.
24 subjects were included in the dataset (n=19 males; mean age=25.0 years, standard deviation=3.6 years, range=20-34 years). All included subjects were healthy, as confirmed by medical history, physical examination, blood analysis, electrocardiogra Mini-International Neuropsychiatric Interview (MINI-SCID) [Sheehan et al., 1998], the DSM-IV self-rating questionnaire for Axis-II personality disorders (SCIS-II) [Fydrich et al., 1997], and the Hopkins Symptom Checklist (SCL-90R) [Franke, 1995]. Subjects were required to abstain from prescription or illicit drugs, alcohol, smoking and caffeine.
The study was designed as a fully double-blind, randomized, within-subject cross-over study. During a session, subjects were pretreated with either a placebo or the 5-HT2A receptor antagonist Ketanserin 60 minutes before being treated with either a placebo or LSD. Thus, each subject participated in 3 sessions in which they underwent each of the following pretreatment · treatment conditions in a randomized, balanced order: • a) Placebo+placebo • b) Placebo+LSD • c) Ketanserin+LSD Two resting-state scans were performed, one 75 and the other 300 minutes after treatment. To assess participants' experience, a retrospective self-report questionnaire (5D-ASC, [Dittrich, 1998]) was administered 720 minutes after treatment, and a shorter version of the 5D-ASC 180, 250 and 360 minutes after treatment. […]

The test system of assay [2] is Healthy Volunteers. Particulars: cited from earlier work; for subjective (psychotomimetic) LSD effects versus placebo at 360 minutes: 5D-ASC short version.
Assay [3] concerns C57Bl/6J mice. In words: Sucrose preference test (SPT) after chronic multimodal stress (CMMS). In kind it is in vivo. As to conditions: stress-susceptible male mice after 10-14 days CMMS; single drug (psilocybin 1 mg/kg i.p. or ketanserin 2 mg/kg i.p.) plus vehicle injection; 24-48 hours after injection.
Assay [4] concerns C57Bl/6J mice. In words: Female urine sniff test (FUST) after chronic multimodal stress (CMMS). In kind it is in vivo. Particulars: stress-susceptible male mice after 10-14 days CMMS; single drug (psilocybin 1 mg/kg i.p. or ketanserin 2 mg/kg i.p.) plus vehicle injection; 24-48 hours after injection.
For the next assay, the system named is TA-CA1 synapses. In words: In vitro electrophysiology: AMPA:NMDA ratios of TA-CA1 fEPSPs in hippocampal slices from treated mice. The class given is in vivo. Particulars: ketanserin 2 mg/kg 60 minutes prior to psilocybin 1 mg/kg; CMMS mice. How it is done: Standard methods were used to prepare […] hippocampal slices. Briefly, mice were euthanized via exposure to isoflurane followed by decapitation. Brains were excised and the hippocampus was quickly dissected from the brain and sectioned on a Leica VT1200 series vibratome in ice-cold artificial cerebrospinal fluid (ACSF) bubbled with 95% O2/5% CO2. The ACSF contained: 124 mM NaCl, 3 mM KCl, 1.25 mM NaH2PO4, 1.5 mM MgSO4, 2.5 mM CaCl2, 26 mM NaHCO3, and 10 mM glucose. Slices were allowed to recover for a minimum of 60 minutes at room temperature in ACSF in a humidified interface chamber before recording.
Use of extracellular recording, rather than whole-cell recording, was chosen for quantification of AMPA:NMDA ratios because of the complications of stress-induced changes in dendritic structure and their electrotonic influence on recordings of distal TA-CAI synapses. For quantification of AMPA:NMDA ratios, ACSF was prepared as stated, but without MgSO4, to leave NMDA channels unblocked. […] Five fEPSPs were again collected at the same stimulation intensities recorded prior to DNQX. […]
AMPA:NMDA ratios of the TA-CAI fEPSPs were quantified as described previously (A. J. Kallarackal et al., 2013 J. Neuroscience. 33, 15669-15764) in order to provide a measure of synaptic strength across slices from different mice. […]

Assay [5] has as its system hippocampal area CA1 in anesthetized mice. The assay can be described thus: In vivo electrophysiology: local field potentials in hippocampal CA1. As to conditions: for effect of ketanserin pretreatment on psilocybin-induced reduction in low frequency (delta) LFP power: ketanserin 2 mg/kg i.p. 60 minutes before psilocybin 10 mg/kg i.p., 15-25 minutes following psilocybin injection.

Another assay has as its target T1, 5-HT2A receptor (Mus musculus, UniProt P35363).
T1 construct: from tissue; host or cells: live mice (whole animal, brain receptors)
In words: Head twitch response (HTR). In kind it is in vivo, mice. Particulars: ketanserin 2 mg/kg 60 minutes prior to psilocybin 1 mg/kg, 15 minutes following injection.

Assay [6] has as its system C57Bl/6J mice. In words: Locomotion in open field arena. Particulars: ketanserin 2 mg/kg 60 minutes prior to psilocybin 5 mg/kg.

“Also recorded” adds a separate entry of the source. Where two headings read alike, the source gives them in different places. Some results are limits rather than exact numbers.

T1 sequence (P35363 whole entry): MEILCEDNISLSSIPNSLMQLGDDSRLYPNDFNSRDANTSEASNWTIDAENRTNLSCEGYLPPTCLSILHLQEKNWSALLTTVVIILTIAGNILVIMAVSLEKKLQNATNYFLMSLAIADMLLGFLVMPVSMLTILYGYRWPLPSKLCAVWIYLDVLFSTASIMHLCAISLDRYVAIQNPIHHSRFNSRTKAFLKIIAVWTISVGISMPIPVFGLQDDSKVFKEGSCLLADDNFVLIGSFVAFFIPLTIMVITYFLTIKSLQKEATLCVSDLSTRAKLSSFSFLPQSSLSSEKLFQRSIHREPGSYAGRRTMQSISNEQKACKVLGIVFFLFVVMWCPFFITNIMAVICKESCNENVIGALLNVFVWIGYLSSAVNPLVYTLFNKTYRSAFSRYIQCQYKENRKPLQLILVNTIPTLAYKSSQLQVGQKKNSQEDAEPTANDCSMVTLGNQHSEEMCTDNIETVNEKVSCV

Turning to `CCN(CC)C(=O)[C@@H]1C=C2c3cccc4[nH]cc(c34)C[C@H]2N(C)C1` [LSD, lysergic acid diethylamide], the “LSD induced neural changes at 300 minutes in the presence of ketanserin” value in the assay on Healthy Volunteers [1] is listed as “reached near full effect within 300 minutes”. In addition, the “subjective (psychotomimetic) LSD effects versus placebo at 360 minutes” value is “still intense and high above placebo” with Healthy Volunteers [2] (FIG. 20 reprinted from Preller 2018); “still significantly elevated from placebo” with Healthy Volunteers [2] (FIG. 20 reprinted from Preller 2018, listed as Pla+LSD). Also, the “self-reported altered states of consciousness (5D-ASC short version)” value in the assay with Healthy Volunteers [2] (180, 250 and 360 minutes after second drug administration, FIG. 20 reprinted from Preller 2018) is “substantial self-reported altered states of consciousness”.
As for `O=C(c1ccc(F)cc1)C1CCN(CCn2c(=O)[nH]c3ccccc3c2=O)CC1` [ketanserin], the “sucrose preference (SP) compared to values after CMMS” value in the assay with C57Bl/6J mice [3] is reported as “nor ketanserin alone (p=0.87; n=6) had a significant effect on SP; also recorded: no significant effect”. Further, the “female urine preference compared to values after CMMS” value in the assay on C57Bl/6J mice [4] is “nor ketanserin alone (p=0.072) had a significant effect on female urine preference; also recorded: no significant effect”. The “effect of ketanserin pretreatment on the ability of psilocybin to restore AMPA:NMDA ratios” value in the assay with TA-CA1 synapses is listed as “did not impair”. Moreover, the “effect of ketanserin pretreatment on psilocybin-induced reduction in low frequency (delta) LFP power” value is “inhibited; also recorded: significantly attenuated” in assay [5] and “greatly attenuated; also recorded: block” in assay [5] (listed as Ketanserin). In addition, in the assay on Healthy Volunteers [1], the “effect of ketanserin pretreatment on LSD-induced neural changes at 75 minutes” value is recorded as “many of the immediate neural changes induced by LSD at 75 minutes”. Moreover, the “LSD induced neural changes at 300 minutes in the presence of ketanserin” value in the assay on Healthy Volunteers [1] was “did not block the neural changes induced by LSD”. For the same molecule, the results for the “effect of ketanserin pretreatment on psilocybin-induced head-twitching (5-HT2A receptor activation)” value at 5-HT2A receptor and at 5-HT2A receptor (listed as Ketanserin) were “prevents head-twitching; also recorded: sufficiently blocked 5-HT2A receptors; also recorded: sufficiently attenuated the activation of 5-HT2ARs” and “block 5-HT2AR-dependent head twitching”, respectively. Besides, the “effect of ketanserin pretreatment on psychotomimetic (behavioral) effects of LSD” value in the assay with Healthy Volunteers [2] (ketanserin 60 minutes before LSD, all timepoints) is “blocked all of the psychotomimetic effects of LSD; also recorded: fully blocked the behavioral effects of LSD”. The “effect of ketanserin pretreatment on locomotion” value in the assay on C57Bl/6J mice [6] is given as “enhances hypolocomotive effects of psilocybin; also recorded: induced hypo-locomotion”.
Regarding `CN(C)CCc1c[nH]c2cccc(OP(=O)(O)O)c12` [psilocybin], the “time of peak effect on low frequency LFP activity following psilocybin injection” value in assay [5] (psilocybin 10 mg/kg) lay within 15 to 25 min. Further, in assay [5] (psilocybin 10 mg/kg, i.p.), the “duration of decrease of delta band power” value was over 60 min and the “time to decrease of delta band power” value is listed as at most 15 min.
